Laboratory results taken from US20250228873A1, “C25 R AND S ISOMERS OF AMINOSTEROLS AND METHODS OF MAKING AND USING THE SAME” (Enterin, Inc., priority 2022, published 2025).
Like-named read-outs stand apart in the source and are kept apart here. Each block holds one compound with its values, some of them ahead of it.

Key:
stomach tissues = test: Stomach RNA-sequencing, ENT-02 (MSI-1436) treatment and congruence with ENT-03 (Example 10); type: in vivo, mice; details: stomach RNA-seq
Description: Samples of stomach tissues from the mice were analysed by RNA-sequencing on an Illumina platform.
To achieve these aims, data were subject to a quality control evaluation, differential expression and functional enrichment analyses, as well as a congruence analysis.
[…] At this threshold, differentially expressed genes were identified in all contrasts.
As mentioned previously, for statistical robustness, only those with an adjusted p-value <0.05 should be considered. […]
The amount of overlap is represented in FIGS. 28A-28D. For each comparison, the value in the plot represents the number of intersecting selected genes and the color represents the Jaccard index (the intersection over the union) for the two contrasts under consideration.
Scatter plots, upset plots, venn diagrams, hypergeometric tests and Spearman rank correlation tests were employed to assess the level of overlap as shown in FIGS. 15-27.

[1] = biological target: T1, PP2A Alpha/PP2R1A Complex (Homo sapiens, UniProt P67775); test: Phosphatase panel, DiFMUP fluorescence assay; type: biochemical
T1 construct: purchased Recation Biology Inc
T1 sequence (P67775 whole entry): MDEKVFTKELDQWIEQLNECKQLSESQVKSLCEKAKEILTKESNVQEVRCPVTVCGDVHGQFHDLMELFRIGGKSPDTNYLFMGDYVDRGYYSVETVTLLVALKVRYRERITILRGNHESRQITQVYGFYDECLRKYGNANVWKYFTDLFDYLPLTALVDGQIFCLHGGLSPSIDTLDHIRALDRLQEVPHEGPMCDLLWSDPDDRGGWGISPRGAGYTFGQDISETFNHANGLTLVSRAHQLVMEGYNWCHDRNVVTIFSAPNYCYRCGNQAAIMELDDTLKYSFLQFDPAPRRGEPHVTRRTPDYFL
T1 sequence (P30153 whole entry partner): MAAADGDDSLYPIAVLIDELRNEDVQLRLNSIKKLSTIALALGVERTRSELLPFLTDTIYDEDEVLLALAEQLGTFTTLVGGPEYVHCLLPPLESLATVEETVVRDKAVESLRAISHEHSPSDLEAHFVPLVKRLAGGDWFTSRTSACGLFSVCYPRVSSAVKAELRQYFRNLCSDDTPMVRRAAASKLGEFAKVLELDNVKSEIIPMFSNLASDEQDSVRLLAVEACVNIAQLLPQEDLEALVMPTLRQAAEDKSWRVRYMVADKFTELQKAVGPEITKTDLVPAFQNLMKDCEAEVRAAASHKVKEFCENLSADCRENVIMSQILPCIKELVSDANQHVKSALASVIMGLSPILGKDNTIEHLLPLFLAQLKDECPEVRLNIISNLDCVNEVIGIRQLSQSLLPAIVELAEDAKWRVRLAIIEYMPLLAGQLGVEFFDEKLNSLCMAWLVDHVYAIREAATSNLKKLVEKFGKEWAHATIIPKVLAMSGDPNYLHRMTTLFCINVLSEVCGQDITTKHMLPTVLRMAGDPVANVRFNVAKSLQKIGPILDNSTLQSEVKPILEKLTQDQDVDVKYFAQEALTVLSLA

PTPN1/PTP1B = biological target: T2, PTPN1/PTP1B (Homo sapiens, UniProt P18031); test: PTP1B inhibition, fluorescence time-course, 10-dose IC50 (Example 2); type: biochemical
T2 construct: The enzyme was the human truncated form (1-321), recombinantly produced in Escherichia coli; host or cells: Escherichia coli
T2 sequence (P18031 1-321): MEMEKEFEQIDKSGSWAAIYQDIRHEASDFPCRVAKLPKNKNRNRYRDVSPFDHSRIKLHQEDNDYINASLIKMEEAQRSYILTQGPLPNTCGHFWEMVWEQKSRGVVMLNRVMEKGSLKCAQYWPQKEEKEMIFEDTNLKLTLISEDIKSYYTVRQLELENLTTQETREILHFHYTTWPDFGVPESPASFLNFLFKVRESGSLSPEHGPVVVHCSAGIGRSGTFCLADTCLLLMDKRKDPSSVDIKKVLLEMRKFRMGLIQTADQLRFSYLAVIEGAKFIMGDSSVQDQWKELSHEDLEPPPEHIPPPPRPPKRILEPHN

PTPN12/PTP-PEST = biological target: T3, PTPN12/PTP-PEST (Homo sapiens, UniProt Q05209); test: Phosphatase panel, DiFMUP fluorescence assay; type: biochemical
T3 construct: purchased Recation Biology Inc
T3 sequence (Q05209 1-780): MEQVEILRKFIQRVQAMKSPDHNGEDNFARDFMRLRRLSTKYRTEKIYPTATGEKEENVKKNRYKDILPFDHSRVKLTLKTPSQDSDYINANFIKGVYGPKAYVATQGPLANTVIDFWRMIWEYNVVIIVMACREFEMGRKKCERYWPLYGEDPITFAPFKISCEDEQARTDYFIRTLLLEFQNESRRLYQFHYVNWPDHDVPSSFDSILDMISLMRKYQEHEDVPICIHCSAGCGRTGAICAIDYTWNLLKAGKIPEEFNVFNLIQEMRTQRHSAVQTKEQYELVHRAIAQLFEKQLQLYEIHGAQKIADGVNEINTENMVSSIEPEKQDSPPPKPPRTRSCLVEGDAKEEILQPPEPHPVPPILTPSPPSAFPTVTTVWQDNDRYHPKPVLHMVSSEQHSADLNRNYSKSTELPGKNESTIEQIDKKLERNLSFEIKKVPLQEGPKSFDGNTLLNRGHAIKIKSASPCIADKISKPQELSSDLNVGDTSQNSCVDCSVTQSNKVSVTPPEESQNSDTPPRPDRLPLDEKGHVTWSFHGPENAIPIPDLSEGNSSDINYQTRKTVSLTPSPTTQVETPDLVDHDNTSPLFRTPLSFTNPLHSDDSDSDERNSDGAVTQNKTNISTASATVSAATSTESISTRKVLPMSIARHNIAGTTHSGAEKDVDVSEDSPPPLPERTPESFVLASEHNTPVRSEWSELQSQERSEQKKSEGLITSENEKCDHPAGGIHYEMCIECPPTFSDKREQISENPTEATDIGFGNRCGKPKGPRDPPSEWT

[2] = biological target: Tyrosine-protein phosphatase non-receptor type 11 (Homo sapiens, UniProt Q06124); test: Phosphatase panel, DiFMUP fluorescence assay; type: biochemical
Sequence of Tyrosine-protein phosphatase non-receptor type 11 (Q06124 247-517): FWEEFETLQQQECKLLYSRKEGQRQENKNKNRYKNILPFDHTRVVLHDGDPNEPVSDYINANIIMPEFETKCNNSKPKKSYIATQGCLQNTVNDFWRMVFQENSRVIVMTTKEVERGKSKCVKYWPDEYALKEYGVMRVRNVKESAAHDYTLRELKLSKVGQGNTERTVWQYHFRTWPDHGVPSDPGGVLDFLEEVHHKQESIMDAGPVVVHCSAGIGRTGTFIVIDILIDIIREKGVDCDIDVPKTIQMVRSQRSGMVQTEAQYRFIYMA

PTPN2/TC-PTP = biological target: T4, PTPN2/TC-PTP (Homo sapiens, UniProt P17706); test: Phosphatase panel, DiFMUP fluorescence assay; type: biochemical
T4 construct: purchased Recation Biology Inc
T4 sequence (P17706 1-415): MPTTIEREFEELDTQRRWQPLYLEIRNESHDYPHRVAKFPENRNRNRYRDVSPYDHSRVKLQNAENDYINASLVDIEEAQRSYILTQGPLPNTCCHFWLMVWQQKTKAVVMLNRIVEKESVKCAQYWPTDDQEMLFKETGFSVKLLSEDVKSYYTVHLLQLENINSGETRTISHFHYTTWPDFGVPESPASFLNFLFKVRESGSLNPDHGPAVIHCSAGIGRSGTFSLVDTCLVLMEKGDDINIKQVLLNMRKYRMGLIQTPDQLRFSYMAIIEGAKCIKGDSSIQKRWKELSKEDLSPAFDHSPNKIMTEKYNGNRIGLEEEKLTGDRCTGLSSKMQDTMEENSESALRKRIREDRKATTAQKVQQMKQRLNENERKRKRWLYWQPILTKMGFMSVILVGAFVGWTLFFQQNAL

PTPRC/CD45 = biological target: T5, PTPRC/CD45 (Homo sapiens, UniProt P08575); test: Phosphatase panel, DiFMUP fluorescence assay; type: biochemical
T5 construct: purchased Recation Biology Inc
T5 sequence (P08575 26-1306): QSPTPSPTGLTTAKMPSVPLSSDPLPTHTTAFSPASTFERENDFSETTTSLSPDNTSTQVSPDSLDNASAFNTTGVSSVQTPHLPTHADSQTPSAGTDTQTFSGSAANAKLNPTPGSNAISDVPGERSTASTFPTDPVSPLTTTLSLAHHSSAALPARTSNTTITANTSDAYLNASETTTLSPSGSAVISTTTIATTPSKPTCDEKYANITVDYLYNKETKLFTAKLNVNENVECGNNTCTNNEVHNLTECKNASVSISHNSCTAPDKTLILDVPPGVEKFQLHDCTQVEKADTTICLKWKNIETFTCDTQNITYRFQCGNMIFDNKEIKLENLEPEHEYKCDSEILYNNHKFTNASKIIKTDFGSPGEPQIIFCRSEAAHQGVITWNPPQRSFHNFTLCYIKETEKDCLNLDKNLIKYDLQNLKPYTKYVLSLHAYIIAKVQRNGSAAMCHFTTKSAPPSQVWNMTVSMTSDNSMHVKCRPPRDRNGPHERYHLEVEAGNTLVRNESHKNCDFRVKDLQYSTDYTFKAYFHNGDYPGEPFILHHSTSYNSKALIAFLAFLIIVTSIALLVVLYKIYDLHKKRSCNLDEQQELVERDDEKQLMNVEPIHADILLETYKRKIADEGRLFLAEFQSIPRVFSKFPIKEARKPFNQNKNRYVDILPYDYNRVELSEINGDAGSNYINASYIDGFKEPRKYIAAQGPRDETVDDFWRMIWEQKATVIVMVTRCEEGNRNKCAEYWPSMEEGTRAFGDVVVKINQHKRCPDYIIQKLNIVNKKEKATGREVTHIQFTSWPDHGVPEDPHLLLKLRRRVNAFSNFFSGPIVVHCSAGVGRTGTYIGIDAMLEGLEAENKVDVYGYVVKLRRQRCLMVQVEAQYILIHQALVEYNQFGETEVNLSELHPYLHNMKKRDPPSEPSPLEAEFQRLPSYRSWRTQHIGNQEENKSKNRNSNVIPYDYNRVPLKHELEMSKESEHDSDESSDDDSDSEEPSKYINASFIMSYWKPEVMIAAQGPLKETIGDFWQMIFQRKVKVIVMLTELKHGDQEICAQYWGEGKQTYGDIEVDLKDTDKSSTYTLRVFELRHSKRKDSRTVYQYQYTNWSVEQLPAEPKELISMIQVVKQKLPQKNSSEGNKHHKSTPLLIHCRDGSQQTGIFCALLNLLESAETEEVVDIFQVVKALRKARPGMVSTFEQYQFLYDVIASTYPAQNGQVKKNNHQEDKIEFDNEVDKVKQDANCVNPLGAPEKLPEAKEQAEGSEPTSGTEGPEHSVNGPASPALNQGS

PTPN6/SHP1 = biological target: T6, PTPN6/SHP1 (Homo sapiens, UniProt P29350); test: Phosphatase panel, DiFMUP fluorescence assay; type: biochemical
T6 construct: purchased Recation Biology Inc
T6 sequence (P29350 whole entry): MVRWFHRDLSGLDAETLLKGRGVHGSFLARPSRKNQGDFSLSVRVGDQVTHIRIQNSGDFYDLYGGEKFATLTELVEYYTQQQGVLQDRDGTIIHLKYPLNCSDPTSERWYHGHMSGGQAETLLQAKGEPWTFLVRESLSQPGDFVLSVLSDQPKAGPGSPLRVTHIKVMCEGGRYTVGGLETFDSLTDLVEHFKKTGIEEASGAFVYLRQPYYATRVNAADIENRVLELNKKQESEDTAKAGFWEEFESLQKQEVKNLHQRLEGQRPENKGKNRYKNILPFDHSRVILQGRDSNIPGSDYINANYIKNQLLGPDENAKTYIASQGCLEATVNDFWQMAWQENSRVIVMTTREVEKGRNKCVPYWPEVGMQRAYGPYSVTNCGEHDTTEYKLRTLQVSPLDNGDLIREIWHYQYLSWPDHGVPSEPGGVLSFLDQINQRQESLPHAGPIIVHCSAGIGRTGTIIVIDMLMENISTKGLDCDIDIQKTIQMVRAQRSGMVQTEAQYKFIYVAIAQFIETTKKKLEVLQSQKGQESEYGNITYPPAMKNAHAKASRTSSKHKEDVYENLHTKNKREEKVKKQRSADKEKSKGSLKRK

Structure (SMILES): CC(C)[C@@H](CC[C@@H](C)[C@H]1CC[C@H]2[C@@H]3[C@H](O)C[C@H]4C[C@@H](NCCCNCCCCN)CC[C@]4(C)[C@H]3CC[C@]12C)OS(=O)(=O)O (single isomer, unassigned) [Ent-01, Squalamine]
number of significant features, down-regulated, fold change threshold 4x (stomach tissues; old vs young mice, both treated, threshold 4x): 69
number of significant features, down-regulated, fold change threshold 8x (stomach tissues; old vs young mice, both treated, threshold 8x): 36
number of significant features, down-regulated, fold change threshold 16x (stomach tissues; old vs young mice, both treated, threshold 16x): 27
number of significant features, down-regulated, fold change threshold 4x (stomach tissues; treatment vs control, old mice, threshold 4x): 66
number of significant features, down-regulated, fold change threshold 8x (stomach tissues; treatment vs control, old mice, threshold 8x): 25
number of significant features, down-regulated, fold change threshold 16x (stomach tissues; treatment vs control, old mice, threshold 16x): 11
number of significant features, down-regulated, fold change threshold 8x (stomach tissues; treatment vs control, young mice, threshold 8x): 47
number of significant features, down-regulated, fold change threshold 16x (stomach tissues; treatment vs control, young mice, threshold 16x): 12
number of significant features, up-regulated, fold change threshold 4x (stomach tissues; treatment vs control, young mice, up-regulated, threshold 4x): 58
number of significant features, up-regulated, fold change threshold 8x (stomach tissues; treatment vs control, young mice, up-regulated, threshold 8x): 38
number of significant features, up-regulated, fold change threshold 16x (stomach tissues; treatment vs control, young mice, up-regulated, threshold 16x): 28

Structure (SMILES): CC1(C(=O)O)C2CCC(O2)C1(C)C(=O)O (centres unmarked) [Canthardic Acid, Cantharidic acid, reference compound]
IC50 ([1]; Compound IC50 (M) PP2A Alpha/PP2R1A Complex, Table 5B): 1.7e-08 M
IC50 ([1]; inhibitory activity PP2A Alpha/PP2R1A Complex, Table 18A): 2.78e-08 M
IC50 ([1]; inhibitory activity PP2A Alpha/PP2R1A Complex, Table 19A): 3.01e-08 M

Slope (signal/min) (PTPN1/PTP1B; Conc 1.00E−04 M): −161 signal/min
Slope (signal/min) (PTPN1/PTP1B; Conc 1.11E−05 M): −319 signal/min
Slope (signal/min) (PTPN1/PTP1B; Conc 1.23E−06 M): 34760 signal/min
Slope (signal/min) (PTPN1/PTP1B; Conc 1.37E−07 M): 40150 signal/min
Slope (signal/min) (PTPN1/PTP1B; Conc 1.52E−08 M): 43819 signal/min
Slope (signal/min) (PTPN1/PTP1B; Conc 3.33E−05 M): −362 signal/min
Slope (signal/min) (PTPN1/PTP1B; Conc 3.70E−06 M): 8429 signal/min
Slope (signal/min) (PTPN1/PTP1B; Conc 4.12E−07 M): 41755 signal/min
Slope (signal/min) (PTPN1/PTP1B; Conc 4.57E−08 M): 43697 signal/min
Slope (signal/min) (PTPN1/PTP1B; Conc 5.08E−09 M): 44655 signal/min
HILLSLOPE (PTPN1/PTP1B; Table 5A): −2.50
Structure (SMILES): [2H]C([2H])([2H])C([2H])(C(CC[C@@H](C)[C@H]1CCC2C3C(CC[C@@]21C)[C@@]1(C)CC[C@H](NCCCNCCCCNCCCN)C[C@@H]1C[C@H]3O)OS(=O)(=O)O)C([2H])([2H])[2H] (some centres unmarked) [Compound D7-1436]

Structure (SMILES): CCc1oc2cc(S(=O)(=O)Nc3ccc(S(=O)(=O)Nc4nccs4)cc3)ccc2c1C(=O)c1cc(Br)c(O)c(Br)c1 [PTP1B Inhibitor, 3-(3,5-Dibromo-4-hydroxy-benzoyl)-2-ethyl-benzofuran-6-sulfonicacid-(4-(thiazol-2-ylsulfamyl)-phenyl)-amide, reference compound]
IC50 (PTPN12/PTP-PEST; Table 5C, read-out: Compound IC50 (M) PTPN12/PTP-PEST): 2.99e-05 M
IC50 (PTPN12/PTP-PEST; Table 18B, read-out: inhibitory activity PTPN12/PTP-PEST): 2.16e-06 M
IC50 (PTPN12/PTP-PEST; Table 19B, read-out: inhibitory activity PTPN12/PTP-PEST): 1.21e-06 M
IC50 [2]: 1.82 µM
IC50 (PTPN2/TC-PTP; Table 5C, read-out: Compound IC50 (M) PTPN2/TC-PTP): 1.34e-05 M
IC50 (PTPN2/TC-PTP; Table 18B, read-out: inhibitory activity PTPN2/TC-PTP): 7.53e-06 M
IC50 (PTPN2/TC-PTP; Table 19B, read-out: inhibitory activity PTPN2/TC-PTP): 5.86e-06 M
IC50 (PTPRC/CD45; Table 5B, read-out: Compound IC50 (M) PTPRC/CD45): 5.7e-05 M
IC50 (PTPRC/CD45; Table 18A, read-out: inhibitory activity PTPRC/CD45): 2.8e-05 M
IC50 (PTPRC/CD45; Table 19A, read-out: inhibitory activity PTPRC/CD45): 2.66e-05 M
IC50 (PTPN6/SHP1; Table 5B, read-out: Compound IC50 (M) PTPN6/SHP1): 5.75e-06 M
IC50 (PTPN6/SHP1; Table 18A, read-out: inhibitory activity PTPN6/SHP1): 3.47e-06 M
IC50 (PTPN6/SHP1; Table 19A, read-out: inhibitory activity PTPN6/SHP1): 3.67e-06 M
